Data as given in PMC9818021, “Targets, Mechanisms and Cytotoxicity of Half-Sandwich Ir(III) Complexes Are Modulated by Structural Modifications on the Benzazole Ancillary Ligand” (Cancers, 2022).

Tests used:
A549-gal cells = assay: Seahorse XFp Glycolysis Stress Test (ECAR); format: cell-based, human; conditions: 16 µM
Method: Cell culture. Epithelial ovarian carcinoma cells (A2780) that acquired resistance to cisplatin epithelial ovarian carcinoma cells (A2780cis), colon adenocarcinoma cells (SW480) and epithelial lung adenocarcinoma cells (A549) were provided by Sigma Aldrich. A549 and SW480 cells were grown in Dulbecco′s Modified Eagle′s Medium (DMEM), supplemented with 10% Fetal Bovine Serum (FBS) and 1% penicillin, streptomycin and 1% glutamine for A549 and 1% amphotericin B for SW480. The A2780 and A2780cis were grown in RPMI 1640 supplemented with 10% Fetal Bovine Serum (FBS), 1% glutamine and 1% penicillin, streptomycin and amphotericin B. All cells were incubated in a humidified incubator at 37 °C under a 5% CO2 atmosphere and grown in 100 mm culture dishes to approximately 70–80% confluence. For subculturing, cells were detached with Trypsin-EDTA (Sigma). A549-gal were derived from A549 cultured in glucose-free medium supplemented with 10 mM galactose (Sigma) for at least 10 passes.
(§1) DNA damage was measured using EpiQuik 8-OHdG DNA Damage Quantification Direct Kit (colorimetric) (Fischer, Waltham, MA, USA, P600396); The mitochondrial cytochrome C release was evaluated using the “Millipore’s FlowCellect Cytochrome C Kit (Millipore, FCCH100110)”. Lactate dehydrogenase activity release was measured in the culture medium using Cytotoxicity Detection Kit (Roche Diagnostic, Barcelona, Spain, 11 644 793 001). Protein synthesis was determined using Click-iT Plus O-propargyl-puromycin (OPP) Protein Synthesis Assay Kit (Invitrogen™, Waltham, MA, USA). Measurement of GSH/GSSG was determined with GSH/GSSG-Glo Assay (Promega, V6611). Measurements of OCR and ECAR with Seahorse XFp (Agilent Technologies) were determined using the XFp Cell Mito Stress Test Kit (103010-100) and XFp Glycolysis Stress Test Kit (103017-100). ATP measurement was determined with Cell Titer-Glo Luminescent Cell Viability Assay (Promega, Madison, WI, USA, G7570). Determination of DNA damage using phosphorylated H2AX measurement were performed as previously described. Cardiolipin oxidation using the fluorophore Nonyl Acridine Orange (NAO, Thermo Scientific, A1372) was performed as described. Cell viability was determined by Hoechst inclusion and Propidium iodide (PI) exclusion by standard protocols. TEM analysis were performed as described. Cell cycle analysis by flow cytometry and microarrays analysis were performed as described. Arrays data have been deposited in the ArrayExpress database at EMBL-EBI (www.ebi.ac.uk/arrayexpress) under accession number E-MTAB-860 (10 November 2022)

caspases 3/7 = assay: Caspase 3/7 detection (CellEvent); format: cell-based, human; conditions: A549, 16 µM, up to 24 h
Method: Specific assays with 1[C,NH] complex were performed according to manufacturer’s instructions using the following reagents from Molecular Probes (Thermo Fisher Scientific): Measurements of ROS: Dihydroethidium (DHE, D11347) and 2′, 7′-dichlorodihydrofluorescein diacetate (H2DCFDA, D399); detection of caspases 3/7: CellEvent Caspase-3/7 Green Detection Reagent (C10423); Cell viability: Live/Dead Cell Imaging Kit (R37601); Analysis of cytosolic calcium concentration: Fluo3/AM (F23915); Analysis of MMP: Tetramethylrhodamine methyl ester perchlorate (TMRM, T668). RT-qPCR’s assays were performed with the following primers/probes from Thermo Fisher Scientific: DCP1A (Hs00218198-m1), FOSB (Hs00171851-m1), EGR1(Hs0015928-m1), ATF3 (Hs00231069-m1), DDIT3 (Hs00358796-g1), PP1R15A (Hs00169585-m1), CHAC1(Hs00225520-m1), MIR9-1 (Hs04231512-s1), ATP1B2 (Hs00155922-m1), BBC3 (Hs00248075-m1), BCL2L11 (Hs00798019-s1), PMAIP1 (Hs00560402-m1), SKP2 (Hs01021864-m1) and HIST1H1B (Hs00271207-s1). RT-qPCR experiments were performed as described.

A549 cells [1] = assay: DNA damage by phosphorylated H2AX, flow cytometry; format: cell-based, human; conditions: 4 h
Method: as §1

A549 cells [2] = assay: Cell cycle analysis by flow cytometry; format: cell-based, human; conditions: 8 µM, 24 h, PI staining
Method: (§2) DNA damage was measured using EpiQuik 8-OHdG DNA Damage Quantification Direct Kit (colorimetric) (Fischer, Waltham, MA, USA, P600396); The mitochondrial cytochrome C release was evaluated using the “Millipore’s FlowCellect Cytochrome C Kit (Millipore, FCCH100110)”. Lactate dehydrogenase activity release was measured in the culture medium using Cytotoxicity Detection Kit (Roche Diagnostic, Barcelona, Spain, 11 644 793 001). Protein synthesis was determined using Click-iT Plus O-propargyl-puromycin (OPP) Protein Synthesis Assay Kit (Invitrogen™, Waltham, MA, USA). Measurement of GSH/GSSG was determined with GSH/GSSG-Glo Assay (Promega, V6611). Measurements of OCR and ECAR with Seahorse XFp (Agilent Technologies) were determined using the XFp Cell Mito Stress Test Kit (103010-100) and XFp Glycolysis Stress Test Kit (103017-100). ATP measurement was determined with Cell Titer-Glo Luminescent Cell Viability Assay (Promega, Madison, WI, USA, G7570). Determination of DNA damage using phosphorylated H2AX measurement were performed as previously described. Cardiolipin oxidation using the fluorophore Nonyl Acridine Orange (NAO, Thermo Scientific, A1372) was performed as described. Cell viability was determined by Hoechst inclusion and Propidium iodide (PI) exclusion by standard protocols. TEM analysis were performed as described. […]

[3] = test system: A549-luc orthotopic lung tumor in athymic nude mice; assay: Orthotopic lung cancer model (A549-luc); format: in vivo, mouse
Method: Orthotopic lung cancer model. Athymic nude mice were used. The model was developed following the protocol previously described. On day 20, treatment with the metal complex was started, and 4 doses were given every other day. Tumor growth was measured in vivo by luminescence (IVIS® Spectrum) on the days that the complexes were not administered, ending the experiment on day 37 with the sacrifice of the animal and the removal of organs. Organ indicators of metastases, lungs, and mediastinal lymph nodes were processed as previously described. Histological analyzes were performed as described.

CHOP = CHOP induction (CHOP::GFP plasmid); format: cell-based, human; conditions: HEK293, 9.7 µM, 24 h time-lapse
Method: CHOP induction. HEK293 cells were seeded at 8 × 10^5 cell/well in 24-well plates and transfected with CHOP::GFP plasmid (Addgene plasmid #21898; http://n2t.net/addgene:21898; RRID:Addgene_21898, 10 November 2022) using the transfection reagent DreamFectTM Gold (OZ Bioscience, Cat. N. º LM80250). After 24 h incubation, the treatments were added: 1[C,NH] 9.7 µM; tunicamycin 0.5 µM as positive control. Cells were stained with propidium iodide (1 µg/mL). Time-lapse images were acquired every 30 min for 24 h.

A549 cells [4] = assay: Cytochrome c release (FlowCellect kit); format: cell-based, human; conditions: 5 h
Method: as §2

BALB/c mice = assay: Biodistribution (ICP-MS of organs); format: in vivo, mouse; conditions: 4 h after i.v. injection
Method: Biodistribution studies: BALB/c mice were injected via the tail vein with 100 µL of 1[C,NH] dissolved in PBS. Then, 4 h after the injection, the animals (n = 3) were sacrificed, and the following organs were removed: kidney, spleen, liver, heart, lung, pancreas, intestine, ovary and stomach. They were kept at −80 °C until their analysis at the Cactus-Lugo Instrumental Analysis Unit. Solutions were diluted to a final volume of 10 mL MilliQ water and measured on an Agilent 7700x-ICP-MS.

A549 cells [5] = assay: GSH/GSSG-Glo assay; format: cell-based, human; conditions: 1 h
Method: as §2

[6] = 4 doses (0.9 mg/kg) on alternate days

## Cc1c(C)c(C)[c-](C)c1C.[Cl][Ir]1[c]2ccccc2-c2[nH]c3ccccc3[n+]21 [1[C,NH], [(η^5-Cp*)IrCl(κ^2-N,C-pbim)]]
A549-gal cells
  Acute Response, ECAR, Mean: 4.17 mpH/min
  Glycolysis, ECAR, Mean: 44.81 mpH/min
  Glycolytic Capacity, ECAR, Mean: 43.97 mpH/min
  Glycolytic Reserve %, Mean: 98.26%
  Glycolytic Reserve, ECAR, Mean: 2.48 mpH/min
  Non-Glycolytic Acidification, ECAR, Mean: 9.64 mpH/min
Caspases 3/7
  Caspase 3/7 activity: induced caspase 3/7 activation
A549 cells [1]; 8 μM
  Percentage of A549 positive cells to damage on DNA: 2%
A549 cells [1]; 16 μM
  Percentage of A549 positive cells to damage on DNA: 30%
A549 cells [1]; 24 μM
  Percentage of A549 positive cells to damage on DNA: 87%
A549 cells [2]
  Cell cycle distribution: percentage of cells in G0/G1 phase increased and cells in G2/M phase decreased
[3]; [6]
  Body weight of treated mice: did not lose weight
  Necropsy findings in non-tumor tissues: no pathological evidence of relevance was detected in non-tumor tissues
[3]; 4 doses (0.9 mg/kg), day 37
  Luciferase activity in mediastinal nodes: lack of effect
  Luciferase activity in the primary tumor (lung extracts): significantly reduced luciferase activity in the primary tumor
  Size of tumor foci (anti-CK7 immunohistochemistry): strong effect on reducing the size of tumor foci
CHOP
  CHOP expression: increased expression
A549 cells [4]
  Cytochrome c release: increased Cyt c release
BALB/c mice
  Tissues with the highest accumulation: liver, kidneys and lungs
A549 cells [5]
  GSH/GSSG ratio: decreased the GSH/GSSG ratio
